Structures are written as SMILES.

The experiment has as its system HCT-116. The experiment can be described thus: Cytotoxicity against human HCT116 cells. Format: functional, cell-based.
In the case of `COc1ccc(C2=C(c3ccccc3)C(=O)N3CCC[C@H]3C2)cc1`, the IC50 was 390 nM. The compound `COc1ccc(C2=C(c3ccccc3)C(=O)N3CCC[C@@H]3C2)cc1` came in with an IC50 of 200 nM. The same measure for `COc1cc2c3c(c4cc(OC)c(OC)cc4c2cc1OC)CN1CCCC1C3` (racemic) [(+/-)-TYLOPHORINE]: 670 nM.

For the origin of these results see ChEMBL document CHEMBL1149887, “Enantiospecific synthesis and cytotoxicity of 7-(4-methoxyphenyl)-6-phenyl-2,3,8,8a-tetrahydroindolizin-5(1H)-one enantiomers” (Bioorg Med Chem, 2008).
